In patent publication US20250346585A1 (Alexion Pharmaceuticals, Inc., priority 2022, published 2025) one finds IC50 data, which are given here for 24 compounds.

For this assay, the target named is Human complement C1s enzyme (Homo sapiens (Human), UniProt P09871). Description: Human C1s enzyme assay. It counts as biochemical. To be noted: Human complement C1s enzyme 1.16 nM, substrate Z-L-Lys-SBzl 100 μM, assay of Example 3; read-out: IC50 (Stars). In short, it runs like this: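 Purified serum-derived human C1s (1.16 nM final) preincubated 5 min at room temperature with compound in 50 mM Tris, 1 M NaCl, pH 7.5. Z-L-Lys-SBzl thioester substrate and DTNB added (100 μM each, final); A405 read every 30 s for 30 min. IC50 from nonlinear regression of reaction rates against compound concentration.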
Chain of Human complement C1s enzyme (P09871 438-688 limits assumed): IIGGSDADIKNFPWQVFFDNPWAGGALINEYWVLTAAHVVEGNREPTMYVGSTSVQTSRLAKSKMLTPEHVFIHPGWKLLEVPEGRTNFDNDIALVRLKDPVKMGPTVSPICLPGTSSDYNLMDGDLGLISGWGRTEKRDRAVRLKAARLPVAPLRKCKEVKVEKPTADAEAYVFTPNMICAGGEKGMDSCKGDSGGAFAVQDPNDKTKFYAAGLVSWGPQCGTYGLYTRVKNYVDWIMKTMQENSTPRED
Chain of Human complement C1s enzyme (P09871 16-437 partner limits assumed): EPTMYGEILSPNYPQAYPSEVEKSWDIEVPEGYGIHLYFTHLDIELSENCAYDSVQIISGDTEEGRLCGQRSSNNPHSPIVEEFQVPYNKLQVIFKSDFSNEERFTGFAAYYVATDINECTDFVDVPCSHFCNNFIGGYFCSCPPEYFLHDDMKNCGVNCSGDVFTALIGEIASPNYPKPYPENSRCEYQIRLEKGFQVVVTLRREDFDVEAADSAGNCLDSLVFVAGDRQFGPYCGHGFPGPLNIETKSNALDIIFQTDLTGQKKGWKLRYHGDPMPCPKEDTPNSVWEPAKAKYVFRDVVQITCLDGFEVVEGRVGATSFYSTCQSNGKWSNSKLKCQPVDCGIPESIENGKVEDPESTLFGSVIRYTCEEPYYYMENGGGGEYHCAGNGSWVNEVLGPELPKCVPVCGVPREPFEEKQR
Turning to `NCCCCNc1csc(CNC(=O)[C@@H]2CC3(CN2C(=O)CNC(=O)c2ccc(Oc4ccc(F)cc4)cc2)OCCO3)c1` [Compound 318, (S)-N-((4-((4-aminobutyl)amino)thiophen-2-yl)methyl)-7-((4-(4-fluorophenoxy)benzoyl)glycyl)-1,4-dioxa-7-azaspiro[4.4]nonane-8-carboxamide], the IC50 (in general, the concentration that inhibits the measured activity by half) was over 1000 nM.

With `Nc1c(Nc2csc(CNC(=O)[C@@H]3CC4(CN3C(=O)CNC(=O)c3ccc(Oc5ccc(F)cc5)cc3)OCCO4)c2)c(=O)c1=O` [Compound 319, (S)-N-((4-((2-amino-3,4-dioxocyclobut-1-en-1-yl)amino)thiophen-2-yl)methyl)-7-((4-(4-fluorophenoxy)benzoyl)glycyl)-1,4-dioxa-7-azaspiro[4.4]nonane-8-carboxamide], the IC50 is over 1000 nM.

With `NCCCC(=O)Nc1csc(CNC(=O)[C@@H]2CC3(CN2C(=O)CNC(=O)c2ccc(Oc4ccc(F)cc4)cc2)OCCO3)c1` [Compound 320, (S)-N-((4-(4-aminobutanamido)thiophen-2-yl)methyl)-7-((4-(4-fluorophenoxy)benzoyl)glycyl)-1,4-dioxa-7-azaspiro[4.4]nonane-8-carboxamide], the IC50 is over 1000 nM.

As for `C[C@@H](NC(=O)[C@@H]1CC2(CN1C(=O)Cc1ccc(-c3ccc(F)cc3F)cc1)OCCO2)c1cc(C(=N)N)cs1` [Compound 321, (S)—N—((R)-1-(4-carbamimidoylthiophen-2-yl)ethyl)-7-(2-(2′,4′-difluoro-[1,1′-biphenyl]-4-yl)acetyl)-1,4-dioxa-7-azaspiro[4.4]nonane-8-carboxamide], the IC50 was under 100 nM.

For the compound `C[C@@H](NC(=O)[C@@H]1C[C@H](C(F)(F)F)CN1C(=O)CNC(=O)c1ccc2c(c1)-c1ccccc1C2(F)F)c1cc(C(=N)N)cs1` [Compound 322, (2S,4S)—N—((R)-1-(4-carbamimidoylthiophen-2-yl)ethyl)-1-((9,9-difluoro-9H-fluorene-3-carbonyl)glycyl)-4-(trifluoromethyl)pyrrolidine-2-carboxamide], the IC50 was under 100 nM.

`C[C@@H](NC(=O)[C@@H]1C[C@H](C(F)(F)F)CN1C(=O)CNC(=O)c1ccc(Oc2ccc(F)cc2)cc1)c1cc(C(=N)N)cs1` [Compound 323, (2S,4S)—N—((R)-1-(4-carbamimidoylthiophen-2-yl)ethyl)-1-((4-(4-fluorophenoxy)benzoyl)glycyl)-4-(trifluoromethyl)pyrrolidine-2-carboxamide]: the IC50 was under 100 nM.

For `C[C@@H](NC(=O)[C@@H]1C[C@@H](C(F)(F)F)CN1C(=O)CNC(=O)c1ccc2c(c1)-c1ccccc1C2(F)F)c1cc(C(=N)N)cs1` [Compound 324, (2S,4R)—N—((R)-1-(4-carbamimidoylthiophen-2-yl)ethyl)-1-((9,9-difluoro-9H-fluorene-3-carbonyl)glycyl)-4-(trifluoromethyl)pyrrolidine-2-carboxamide], the IC50 is under 100 nM.

On to `Cc1c2ccccc2cc2cc(C(=O)NCC(=O)N3CC4(C[C@H]3C(=O)N[C@H](C)c3cc(C(=N)N)cs3)OCCO4)ccc12` [Compound 325, (S)—N—((R)-1-(4-carbamimidoylthiophen-2-yl)ethyl)-7-((10-methylanthracene-2-carbonyl)glycyl)-1,4-dioxa-7-azaspiro[4.4]nonane-8-carboxamide], for which the IC50 is under 100 nM.

As for `C[C@@H](NC(=O)[C@@H]1C[C@@H](OC(F)F)CN1C(=O)CNC(=O)c1ccc2[nH]c3ccccc3c2c1)c1cc(C(=N)N)cs1` [Compound 326, N-(2-((2S,4R)-2-(((R)-1-(4-carbamimidoylthiophen-2-yl)ethyl)carbamoyl)-4-(difluoromethoxy)pyrrolidin-1-yl)-2-oxoethyl)-9H-carbazole-3-carboxamide], the IC50 was under 100 nM.

On to `C[C@@H](NC(=O)[C@@H]1C[C@](F)(CF)CN1C(=O)CNC(=O)c1ccc2c(c1)Oc1ccccc1S2)c1cc(C(=N)N)cs1` [Compound 327, (2S,4R)—N—((R)-1-(4-carbamimidoylthiophen-2-yl)ethyl)-4-fluoro-4-(fluoromethyl)-1-((phenoxathiine-3-carbonyl)glycyl)pyrrolidine-2-carboxamide], for which the IC50 is under 100 nM.

In the case of `C[C@@H](NC(=O)[C@@H]1C[C@@H](OC(F)F)CN1C(=O)CNC(=O)c1ccc2c(c1)Oc1ccccc1S2)c1cc(C(=N)N)cs1` [Compound 328, (2S,4R)—N—((R)-1-(4-carbamimidoylthiophen-2-yl)ethyl)-4-(difluoromethoxy)-1-((phenoxathiine-3-carbonyl)glycyl)pyrrolidine-2-carboxamide], the IC50 was under 100 nM.

For the compound `C[C@@H](NC(=O)[C@@H]1C[C@](F)(CF)CN1C(=O)CNC(=O)c1cccc(-c2ccc(F)cc2)c1)c1cc(C(=N)N)cs1` [Compound 329, (2S,4R)—N—((R)-1-(4-carbamimidoylthiophen-2-yl)ethyl)-4-fluoro-1-((4′-fluoro-[1,1′-biphenyl]-3-carbonyl)glycyl)-4-(fluoromethyl)pyrrolidine-2-carboxamide], the half-inhibitory concentration (IC50) is under 100 nM.

In the case of `C[C@@H](NC(=O)[C@@H]1C[C@@H](OC(F)F)CN1C(=O)CNC(=O)c1cccc(-c2ccc(F)cc2)c1)c1cc(C(=N)N)cs1` [Compound 330, (2S,4R)—N—((R)-1-(4-carbamimidoylthiophen-2-yl)ethyl)-4-(difluoromethoxy)-1-((4′-fluoro-[1,1′-biphenyl]-3-carbonyl)glycyl)pyrrolidine-2-carboxamide], the IC50 was under 100 nM.

Take `C[C@@H](NC(=O)[C@@H]1CC2(CN1C(=O)CNC(=O)c1ccc3cc4ccccc4nc3c1)OCCO2)c1cc(C(=N)N)cs1` [Compound 331, (S)-7-((acridine-3-carbonyl)glycyl)-N—((R)-1-(4-carbamimidoylthiophen-2-yl)ethyl)-1,4-dioxa-7-azaspiro[4.4]nonane-8-carboxamide]: the IC50 was under 100 nM.

As to `C[C@@H](NC(=O)[C@@H]1C[C@@H](S(C)(=O)=O)CN1C(=O)CNC(=O)c1ccc2c(c1)Oc1ccccc1S2)c1cc(C(=N)N)cs1` [Compound 333, (2S,4R)—N—((R)-1-(4-carbamimidoylthiophen-2-yl)ethyl)-4-(methylsulfonyl)-1-((phenoxathiine-3-carbonyl)glycyl)pyrrolidine-2-carboxamide], the half-inhibitory concentration (IC50) was under 100 nM.

On to `C[C@@H](NC(=O)[C@@H]1C[C@@H](S(C)(=O)=O)CN1C(=O)CNC(=O)c1cccc(-c2ccc(F)cc2)c1)c1cc(C(=N)N)cs1` [Compound 334, (2S,4R)—N—((R)-1-(4-carbamimidoylthiophen-2-yl)ethyl)-1-((4′-fluoro-[1,1′-biphenyl]-3-carbonyl)glycyl)-4-(methylsulfonyl)pyrrolidine-2-carboxamide], for which the IC50 was under 100 nM.

With `Cc1ccc(-c2cccc(C(=O)NCC(=O)N3C[C@H](S(C)(=O)=O)C[C@H]3C(=O)N[C@H](C)c3cc(C(=N)N)cs3)c2)cc1` [Compound 335, (2S,4R)—N—((R)-1-(4-carbamimidoylthiophen-2-yl)ethyl)-1-((4′-methyl-[1,1′-biphenyl]-3-carbonyl)glycyl)-4-(methylsulfonyl)pyrrolidine-2-carboxamide], the IC50 is under 100 nM.

Regarding `C[C@@H](NC(=O)[C@@H]1C[C@](F)(CF)CN1C(=O)CNC(=O)c1ccc2c(c1)-c1ccccc1S2(=O)=O)c1cc(C(=N)N)cs1` [Compound 336, (2S,4R)—N—((R)-1-(4-carbamimidoylthiophen-2-yl)ethyl)-1-((5,5-dioxidodibenzo[b,d]thiophene-2-carbonyl)glycyl)-4-fluoro-4-(fluoromethyl) pyrrolidine-2-carboxamide], the IC50 was under 100 nM.

Consider `C[C@@H](NC(=O)[C@@H]1C[C@@H](OC(F)F)CN1C(=O)CNC(=O)c1ccc2c(c1)-c1ccccc1S2(=O)=O)c1cc(C(=N)N)cs1` [Compound 337, (2S,4R)—N—((R)-1-(4-carbamimidoylthiophen-2-yl)ethyl)-4-(difluoromethoxy)-1-((5,5-dioxidodibenzo[b,d]thiophene-2-carbonyl)glycyl) pyrrolidine-2-carboxamide], for which the IC50 was under 100 nM.

Take `C[C@@H](NC(=O)[C@@H]1CC2(CN1C(=O)Cc1ccc(-c3ccccc3)cc1)OCCO2)c1cc(C(=N)N)cs1` [Compound 338, (S)-7-(2-([1,1′-biphenyl]-4-yl)acetyl)-N—((R)-1-(4-carbamimidoylthiophen-2-yl)ethyl)-1,4-dioxa-7-azaspiro[4.4]nonane-8-carboxamide]: the IC50 is under 100 nM.

For `C[C@@H](NC(=O)[C@@H]1C[C@@H](S(C)(=O)=O)CN1C(=O)CNC(=O)c1ncc(-c2ccccc2)cc1F)c1cc(C(=N)N)cs1` [Compound 339, N-(2-((2S,4R)-2-(((R)-1-(4-carbamimidoylthiophen-2-yl)ethyl)carbamoyl)-4-(methylsulfonyl)pyrrolidin-1-yl)-2-oxoethyl)-3-fluoro-5-phenylpicolinamide], the IC50 is under 100 nM.

`C[C@@H](NC(=O)[C@@H]1C[C@@H](S(C)(=O)=O)CN1C(=O)CNC(=O)c1ccc2[nH]c3ccccc3c2c1)c1cc(C(=N)N)cs1` [Compound 340, N-(2-((2S,4R)-2-(((R)-1-(4-carbamimidoylthiophen-2-yl)ethyl)carbamoyl)-4-(methylsulfonyl)pyrrolidin-1-yl)-2-oxoethyl)-9H-carbazole-3-carboxamide]: the IC50 is under 100 nM.

For the compound `C[C@@H](NC(=O)[C@@H]1C[C@](F)(CF)CN1C(=O)CNC(=O)c1ccc2[nH]c3ccccc3c2c1)c1cc(C(=N)N)cs1` [Compound 341, N-(2-((2S,4R)-2-(((R)-1-(4-carbamimidoylthiophen-2-yl)ethyl)carbamoyl)-4-fluoro-4-(fluoromethyl)pyrrolidin-1-yl)-2-oxoethyl)-9H-carbazole-3-carboxamide], the IC50 is under 100 nM.

Consider `C[C@@H](NC(=O)[C@@H]1C[C@@H](S(C)(=O)=O)CN1C(=O)CNC(=O)c1ccc2c(c1)-c1ccccc1S2(=O)=O)c1cc(C(=N)N)cs1` [Compound 342, (2S,4R)—N—((R)-1-(4-carbamimidoylthiophen-2-yl)ethyl)-1-((5,5-dioxidodibenzo[b,d]thiophene-2-carbonyl)glycyl)-4-(methylsulfonyl) pyrrolidine-2-carboxamide], for which the IC50 is under 100 nM.
